Laboratory results taken from ChEMBL document CHEMBL5154869, “Discovery of 4-((E)-3,5-dimethoxy-2-((E)-2-nitrovinyl)styryl)aniline derivatives as potent and orally active NLRP3 inflammasome inhibitors for colitis” (Eur J Med Chem, 2022).
The source made the active and inactive calls. The rule behind the calls is not given here.

Legend:
Mus musculus [1] = assay: Anti-colitis activity against DSS-induced colitis C57BL/6 mouse model assessed as reduction in IL-6 level in colon at 10 to 20 mg/kg, po administered once a day and measured on day 8 by ELISA; assay type: functional, organism-based; settings: dose 10-20 mg/kg, time 8.0 day
[2] = target: NACHT, LRR and PYD domains-containing protein 3 (Mus musculus) (UniProt Q8R4B8); assay: (§1) Inhibition of NLRP3 inflammasome activation in LPS/nigericin-treated C57BL/6 mouse bone marrow-derived macrophages assessed as inhibition of ASC oligomerization preincubated for 3 hrs with LPS and for 30 mins with compound prior to nigericin addition and measured after 30 mins by Western blot analysis; assay type: cell-based; settings: BMDM, dose 0.5-2 µM, time 60.0 min, DDE = dose-dependent effect
NACHT, LRR and PYD domains-containing protein 3 (Mus musculus), sequence (Q8R4B8 whole entry, the tested form may be a part): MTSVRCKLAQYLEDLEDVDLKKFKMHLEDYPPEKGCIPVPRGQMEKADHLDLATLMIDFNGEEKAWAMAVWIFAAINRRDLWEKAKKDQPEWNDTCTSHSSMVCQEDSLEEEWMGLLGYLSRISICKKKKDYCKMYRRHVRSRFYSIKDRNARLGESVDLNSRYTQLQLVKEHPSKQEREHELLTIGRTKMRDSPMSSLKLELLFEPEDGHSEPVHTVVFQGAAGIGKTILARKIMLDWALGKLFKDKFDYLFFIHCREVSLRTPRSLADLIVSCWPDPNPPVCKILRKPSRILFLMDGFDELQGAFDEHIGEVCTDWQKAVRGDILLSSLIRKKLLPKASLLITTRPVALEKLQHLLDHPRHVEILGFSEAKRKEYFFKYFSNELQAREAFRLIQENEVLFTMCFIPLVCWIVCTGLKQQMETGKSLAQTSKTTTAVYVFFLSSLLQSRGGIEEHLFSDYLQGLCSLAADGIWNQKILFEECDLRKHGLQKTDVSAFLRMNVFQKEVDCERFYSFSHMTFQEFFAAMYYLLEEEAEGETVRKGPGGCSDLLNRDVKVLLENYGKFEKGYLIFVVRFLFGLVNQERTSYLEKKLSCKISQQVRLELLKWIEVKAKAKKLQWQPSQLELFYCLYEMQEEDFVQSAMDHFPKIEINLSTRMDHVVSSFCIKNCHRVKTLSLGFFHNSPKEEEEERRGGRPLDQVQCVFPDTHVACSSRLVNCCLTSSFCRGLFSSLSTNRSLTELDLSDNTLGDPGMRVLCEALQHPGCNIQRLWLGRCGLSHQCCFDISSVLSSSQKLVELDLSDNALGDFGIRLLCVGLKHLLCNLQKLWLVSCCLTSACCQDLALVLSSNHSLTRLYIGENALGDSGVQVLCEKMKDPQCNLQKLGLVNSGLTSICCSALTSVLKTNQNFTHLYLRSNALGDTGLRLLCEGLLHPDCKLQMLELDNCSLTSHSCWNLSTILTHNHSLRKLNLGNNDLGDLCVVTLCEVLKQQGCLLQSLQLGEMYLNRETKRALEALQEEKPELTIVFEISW

[3] = target: NACHT, LRR and PYD domains-containing protein 3 (Mus musculus) (UniProt Q8R4B8); assay: Inhibition of NLRP3 inflammasome activation in LPS-stimulated mouse J774.A1 cells assessed as reduction in pyroptosis at 10 uM pretreated for 4 hrs with LPS and for 30 mins with compound prior to ATP addition and measured after 30 mins by PI/Hoechst33342 staining based analysis; assay type: cell-based; settings: time 60.0 min
[4] = target: NACHT, LRR and PYD domains-containing protein 3 (Mus musculus) (UniProt Q8R4B8); assay: (§2) Inhibition of NLRP3 inflammasome activation in LPS/MSU-treated C57BL/6 mouse bone marrow-derived macrophages assessed as reduction in activated caspase 1(P20) level in culture supernatants preincubated for 3 hrs with LPS and for 30 mins with compound prior to MSU addition and measured after 30 mins by Western blot analysis; assay type: cell-based; settings: BMDM, time 60.0 min
Mus musculus [5] = assay: Anti-colitis activity against DSS-induced colitis C57BL/6 mouse model assessed as reduction in disease activity index administered po once a day; assay type: functional, organism-based; settings: dose 10-20 mg/kg, DDE = dose-dependent effect
[6] = target: NACHT, LRR and PYD domains-containing protein 3 (Mus musculus) (UniProt Q8R4B8); assay: as §1, with “reduction in NEK7-NLRP3 protein-protein interaction at 2 to 4 uM” for “inhibition of ASC oligomerization”, “immunoprecipitation method” for “Western blot analysis”; assay type: cell-based; settings: BMDM, dose 2-4 µM, time 60.0 min
[7] = target: NACHT, LRR and PYD domains-containing protein 3 (Mus musculus) (UniProt Q8R4B8); assay: as §1, with “reduction in ASC-NLRP3 protein-protein interaction at 2 to 4 uM” for “inhibition of ASC oligomerization”, “immunoprecipitation method” for “Western blot analysis”; assay type: cell-based; settings: BMDM, dose 2-4 µM, time 60.0 min
[8] = target: NACHT, LRR and PYD domains-containing protein 3 (Mus musculus) (UniProt Q8R4B8); assay: as §2, with “LPS/ATP-treated” for “LPS/MSU-treated”, “cleaved IL-1 beta” for “activated caspase 1(P20)”, “ATP” for “MSU”; assay type: cell-based; settings: BMDM, time 60.0 min
[9] = Inhibition of LPS/nigericin-induced reactive oxygen species production in C57BL/6 mouse bone marrow-derived macrophages assessed as ROS level at 1 uM by DCFH-DA staining based flow cytometry (reference value: 33.51%); assay type: functional, BMDM; parameters: scale not given: the % may be the effect or the level left
[10] = target: NACHT, LRR and PYD domains-containing protein 3 (Homo sapiens, UniProt Q96P20); assay: Binding affinity to GFP-fused NLRP3 (unknown origin) expressed in HEK293T cells by MST assay; assay type: cell-based
NACHT, LRR and PYD domains-containing protein 3 (Homo sapiens, UniProt Q96P20), sequence (Q96P20 whole entry, the tested form may be a part): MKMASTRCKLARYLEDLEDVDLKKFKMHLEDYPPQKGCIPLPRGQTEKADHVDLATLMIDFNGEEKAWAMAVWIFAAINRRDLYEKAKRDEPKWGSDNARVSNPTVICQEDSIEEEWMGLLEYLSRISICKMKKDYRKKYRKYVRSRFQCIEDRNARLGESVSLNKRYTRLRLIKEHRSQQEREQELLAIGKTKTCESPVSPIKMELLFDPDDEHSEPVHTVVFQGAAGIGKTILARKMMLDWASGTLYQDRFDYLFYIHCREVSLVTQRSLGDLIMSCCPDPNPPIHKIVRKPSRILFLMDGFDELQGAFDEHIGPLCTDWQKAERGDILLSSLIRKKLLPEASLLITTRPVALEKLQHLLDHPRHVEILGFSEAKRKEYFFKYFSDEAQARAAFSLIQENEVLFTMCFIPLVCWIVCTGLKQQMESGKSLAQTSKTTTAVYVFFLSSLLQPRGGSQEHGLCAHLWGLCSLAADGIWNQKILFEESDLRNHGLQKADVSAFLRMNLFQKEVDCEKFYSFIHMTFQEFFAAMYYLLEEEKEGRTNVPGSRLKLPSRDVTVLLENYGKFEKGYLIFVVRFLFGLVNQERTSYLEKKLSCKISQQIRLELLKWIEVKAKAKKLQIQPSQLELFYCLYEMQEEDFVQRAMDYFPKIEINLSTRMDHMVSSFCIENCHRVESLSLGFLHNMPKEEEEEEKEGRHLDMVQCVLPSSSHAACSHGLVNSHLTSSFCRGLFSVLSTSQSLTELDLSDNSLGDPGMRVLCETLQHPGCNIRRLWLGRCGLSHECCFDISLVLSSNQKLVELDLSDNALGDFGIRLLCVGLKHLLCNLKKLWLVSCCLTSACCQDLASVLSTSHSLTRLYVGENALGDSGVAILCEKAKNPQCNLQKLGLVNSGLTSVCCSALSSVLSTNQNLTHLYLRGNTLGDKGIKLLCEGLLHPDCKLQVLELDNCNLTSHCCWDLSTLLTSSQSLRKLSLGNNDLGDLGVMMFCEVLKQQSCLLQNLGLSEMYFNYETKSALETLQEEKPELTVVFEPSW

[11] = Metabolic stability in human hepatocytes assessed as intrinsic clearance by LC-MS/MS analysis; assay type: ADME, cell-based, Hepatocyte; settings: read-out: CLH
[12] = target: NACHT, LRR and PYD domains-containing protein 3 (Mus musculus) (UniProt Q8R4B8); assay: as §2, with “LPS/nigericin-treated” for “LPS/MSU-treated”, “cell lysates at 0.5 to 2 uM” for “culture supernatants”, “nigericin” for “MSU”; assay type: subcellular; settings: BMDM, dose 0.5-2 µM, time 60.0 min, DDE = dose-dependent effect
[13] = target: NACHT, LRR and PYD domains-containing protein 3 (Mus musculus) (UniProt Q8R4B8); assay: Inhibition of NLRP3 inflammasome activation in LPS/MSU-treated C57BL/6 mouse bone marrow-derived macrophages assessed as reduction in IL-1beta secretion preincubated for 3 hrs with LPS and for 30 mins with compound prior to MSU addition and measured after 30 mins by ELISA; assay type: cell-based; settings: BMDM, time 60.0 min
[14] = Cytotoxicity against human L02 cells assessed as reduction in cell viability incubated for 24 hrs by MTT assay; assay type: toxicity, cell-based
[15] = target: NACHT, LRR and PYD domains-containing protein 3 (Mus musculus) (UniProt Q8R4B8); assay: as §2, with “LPS/ATP-treated” for “LPS/MSU-treated”, “cell lysates” for “culture supernatants”, “ATP” for “MSU”; assay type: subcellular; settings: BMDM, time 60.0 min
[16] = target: NACHT, LRR and PYD domains-containing protein 3 (Mus musculus) (UniProt Q8R4B8); assay: Binding affinity to NLRP3 in mouse J774.A1 cell lysates assessed as reduction in protein degradation at 50 uM incubated at 48 to 78 degC by CETSA; assay type: subcellular
[17] = Inhibition of LPS/nigericin-induced reactive oxygen species production in C57BL/6 mouse bone marrow-derived macrophages assessed as ROS level at 2 uM by DCFH-DA staining based flow cytometry (reference value: 33.51%); assay type: functional, BMDM; parameters: scale not given: the % may be the effect or the level left
Mus musculus [18] = assay: Anti-colitis activity against DSS-induced colitis C57BL/6 mouse model assessed as reduction in body weight loss at 10 to 20 mg/kg, po administered once a day; assay type: functional, organism-based; settings: dose 10-20 mg/kg
Mus musculus [19] = assay: Anti-colitis activity against DSS-induced colitis C57BL/6 mouse model assessed as reduction in decrease of goblet cells in colon at 10 to 20 mg/kg, po administered once a day and measured on day 8 by H and E staining based analysis; assay type: functional, organism-based; settings: dose 10-20 mg/kg, time 8.0 day
Mus musculus [20] = assay: Anti-colitis activity against DSS-induced colitis C57BL/6 mouse model assessed as reduction in colon shortening at 10 to 20 mg/kg, po administered once a day; assay type: functional, organism-based; settings: dose 10-20 mg/kg
Mus musculus [21] = assay: Anti-colitis activity against DSS-induced colitis C57BL/6 mouse model assessed as reduction in pathological index score of colon at 10 to 20 mg/kg, po administered once a day and measured on day 8 by H and E staining based analysis; assay type: functional, organism-based; settings: dose 10-20 mg/kg, time 8.0 day
[22] = target: NACHT, LRR and PYD domains-containing protein 3 (Mus musculus) (UniProt Q8R4B8); assay: as §2, with “cell lysates” for “culture supernatants”; assay type: subcellular; settings: BMDM, time 60.0 min
Mus musculus [23] = assay: Anti-colitis activity against DSS-induced colitis C57BL/6 mouse model assessed as reduction in IL-1 beta level in colon at 10 to 20 mg/kg, po administered once a day and measured on day 8 by ELISA; assay type: functional, organism-based; settings: dose 10-20 mg/kg, time 8.0 day
Mus musculus [24] = assay: Anti-colitis activity against DSS-induced colitis C57BL/6 mouse model assessed as reduction in TNF-alpha level in colon at 10 to 20 mg/kg, po administered once a day and measured on day 8 by ELISA; assay type: functional, organism-based; settings: dose 10-20 mg/kg, time 8.0 day
[25] = target: NACHT, LRR and PYD domains-containing protein 3 (Mus musculus) (UniProt Q8R4B8); assay: Inhibition of NLRP3 inflammasome activation in LPS/ATP-treated C57BL/6 mouse bone marrow-derived macrophages assessed as reduction in IL-1beta secretion preincubated for 3 hrs with LPS and for 30 mins with compound prior to ATP addition and measured after 30 mins by ELISA; assay type: cell-based; settings: BMDM, time 60.0 min
[26] = Metabolic stability in human liver microsomes assessed as half life by LC-MS/MS analysis; assay type: ADME, Microsome
[27] = target: NACHT, LRR and PYD domains-containing protein 3 (Mus musculus) (UniProt Q8R4B8); assay: as §2, with “LPS/ATP-treated” for “LPS/MSU-treated”, “ATP” for “MSU”; assay type: cell-based; settings: BMDM, time 60.0 min
[28] = Metabolic stability in human liver microsomes assessed as intrinsic clearance by LC-MS/MS analysis; assay type: ADME, Microsome; settings: read-out: CLH
[29] = target: NACHT, LRR and PYD domains-containing protein 3 (Mus musculus) (UniProt Q8R4B8); assay: as §2, with “LPS/nigericin-treated” for “LPS/MSU-treated”, “nigericin” for “MSU”; assay type: cell-based; settings: BMDM, dose 0.5-2 µM, time 60.0 min, DDE = dose-dependent effect
[30] = Inhibition of LPS/nigericin-induced reactive oxygen species production in C57BL/6 mouse bone marrow-derived macrophages assessed as ROS level at 4 uM by DCFH-DA staining based flow cytometry (reference value: 33.51%); assay type: functional, BMDM; parameters: scale not given: the % may be the effect or the level left
[31] = target: NACHT, LRR and PYD domains-containing protein 3 (Mus musculus, UniProt Q8R4B8); assay: (§3) Inhibition of NLRP3 inflammasome activation in LPS/nigericin-treated C57BL/6 mouse bone marrow-derived macrophages assessed as reduction in IL-1beta secretion preincubated for 3 hrs with LPS and for 30 mins with compound prior to nigericin addition and measured after 30 mins by ELISA; assay type: cell-based, BMDM
NACHT, LRR and PYD domains-containing protein 3 (Mus musculus, UniProt Q8R4B8), sequence (Q8R4B8 whole entry, the tested form may be a part): as the sequence (Q8R4B8 whole entry, the tested form may be a part) above

[32] = target: NACHT, LRR and PYD domains-containing protein 3 (Mus musculus) (UniProt Q8R4B8); assay: as §3; assay type: cell-based; settings: BMDM, time 60.0 min, DDE = dose-dependent effect
[33] = target: NACHT, LRR and PYD domains-containing protein 3 (Mus musculus) (UniProt Q8R4B8); assay: Inhibition of NLRP3 inflammasome activation in LPS-stimulated mouse J774.A1 cells assessed as reduction in pyroptosis pretreated for 4 hrs with LPS and for 30 mins with compound prior to ATP addition and measured after 30 mins by PI/Hoechst33342 staining based analysis; assay type: cell-based; settings: dose 2.5-10 µM, time 60.0 min, DDE = dose-dependent effect
[34] = target: NACHT, LRR and PYD domains-containing protein 3 (Mus musculus) (UniProt Q8R4B8); assay: as §2, with “LPS/nigericin-treated” for “LPS/MSU-treated”, “cleaved IL-1 beta” for “activated caspase 1(P20)”, “nigericin” for “MSU”; assay type: cell-based; settings: BMDM, dose 0.5-2 µM, time 60.0 min, DDE = dose-dependent effect
[35] = target: NACHT, LRR and PYD domains-containing protein 3 (Mus musculus) (UniProt Q8R4B8); assay: as §2, with “cleaved IL-1 beta” for “activated caspase 1(P20)”; assay type: cell-based; settings: BMDM, time 60.0 min

inhibition [2]: Dde
inhibition [3]: 70.8%
inhibition [4]: Active
inhibition [6]: Active
inhibition [7]: Active
inhibition [8]: Active
Kd [10]: 0.213 µM
CLint scaled [11]: 7.4 mL/min/kg
inhibition [12]: Dde
inhibition [13]: Active
inhibition [15]: Active
inhibition [16]: Active
inhibition [22]: Active
inhibition [25]: Active
half-life [26]: 2.31 h
inhibition [27]: Active
microsomal CLint [28]: 10 µL/min/mg
inhibition [29]: Dde
IC50 [31]: 1.23 µM
inhibition [32]: Dde
inhibition [33]: Dde
inhibition [34]: Dde
inhibition [35]: Active
SMILES: COc1cc(/C=C/c2ccc(NC(=O)c3ccco3)cc2)c(/C=C/[N+](=O)[O-])c(OC)c1
Activity (Mus musculus [1]): Active
Activity (Mus musculus [5]): Dde
Activity [9]: 30.5%
IC50 at 24 h [14]: > 100 µM
Activity [17]: 29.79%
Activity (Mus musculus [18]): Active
Activity (Mus musculus [19]): Active
Activity (Mus musculus [20]): Active
Activity (Mus musculus [21]): Active
Activity (Mus musculus [23]): Active
Activity (Mus musculus [24]): Active
Activity [30]: 29.01%
